Results taken from paper PMC10504751, “Chalcone/1,3,4-Oxadiazole/Benzimidazole hybrids as novel anti-proliferative agents inducing apoptosis and inhibiting EGFR & BRAFV^600E” (BMC Chemistry, 2023).

How the values were obtained:
Experiment in all cases: NCI one-dose SRB anti-proliferative screen
RXF 393 = assay type: cell-based, human; settings: Homo sapiens; RXF 393 (Renal Cancer), NCI one dose 10 µM; read-out: Cell growth inhibition %
Method: (§1) The twenty-four synthesized compounds were submitted to the National Cancer Institute (NCI), USA. Eighteen hybrids 7a-h, 7k-r, 7u, and 7v were selected by NCI for one-dose assessment of their anti-proliferative activities at 10 µM dose by Sulforhodamine B colorimetric assay. The assessment was performed in 60 cell lines derived from nine tumor subpanels, comprising lung, leukemia, melanoma, colon, renal, CNS, prostate, breast, and ovarian cancer cell lines.
(§2) The methodology of the NCI anti-proliferative screening has been described in details elsewhere (http://www.dtp.nci.nih.gov).

K-562 = assay type: cell-based, human; settings: Homo sapiens, K562; K-562 (Leukemia), NCI one dose 10 µM; read-out: Cell growth inhibition %
Method: as §1, §2

HCT-116 = assay type: cell-based, human; settings: Homo sapiens; HCT-116 (Colon Cancer), NCI one dose 10 µM; read-out: Cell growth inhibition %
Method: as §1, §2

MOLT-4 = assay type: cell-based, human; settings: Homo sapiens; MOLT-4 (Leukemia), NCI one dose 10 µM; read-out: Cell growth inhibition %
Method: as §1, §2

T-47D = assay type: cell-based, human; settings: Homo sapiens, T47D; T-47D (Breast Cancer), NCI one dose 10 µM; read-out: Cell growth inhibition %
Method: as §1, §2

OVCAR-5 = assay type: cell-based; settings: Homo sapiens; OVCAR-5 (Ovarian Cancer), NCI one dose 10 µM; read-out: Cell growth inhibition %
Method: as §1, §2

CCRF-CEM = assay type: cell-based; settings: Homo sapiens; CCRF-CEM (Leukemia), NCI one dose 10 µM; read-out: Cell growth inhibition %
Method: as §1, §2

IGROV1 = assay type: cell-based; settings: Homo sapiens, IGROV-1; IGROV1 (Ovarian Cancer), NCI one dose 10 µM; read-out: Cell growth inhibition %
Method: as §1, §2

MCF7 = assay type: cell-based; settings: Homo sapiens; MCF7 (Breast Cancer), NCI one dose 10 µM; read-out: Cell growth inhibition %
Method: as §1, §2

OVCAR-8 = assay type: cell-based; settings: Homo sapiens; OVCAR-8 (Ovarian Cancer), NCI one dose 10 µM; read-out: Cell growth inhibition %
Method: as §1, §2

UO-31 = assay type: cell-based; settings: Homo sapiens; UO-31 (Renal Cancer), NCI one dose 10 µM; read-out: Cell growth inhibition %
Method: as §1, §2

RPMI-8226 = assay type: cell-based; settings: Homo sapiens; RPMI-8226 (Leukemia), NCI one dose 10 µM; read-out: Cell growth inhibition %
Method: as §1, §2

COLO 205 = assay type: cell-based; settings: Homo sapiens; COLO 205 (Colon Cancer), NCI one dose 10 µM; read-out: Cell growth inhibition %
Method: as §1, §2

HS 578T = assay type: cell-based; settings: Homo sapiens; HS 578T (Breast Cancer), NCI one dose 10 µM; read-out: Cell growth inhibition %
Method: as §1, §2

UACC-62 = assay type: cell-based; settings: Homo sapiens; UACC-62 (Melanoma), NCI one dose 10 µM; read-out: Cell growth inhibition %
Method: as §1, §2

HCT-15 = assay type: cell-based; settings: Homo sapiens; HCT-15 (Colon Cancer), NCI one dose 10 µM; read-out: Cell growth inhibition %
Method: as §1, §2

MDA-MB-435 = assay type: cell-based; settings: Homo sapiens; MDA-MB-435 (Melanoma), NCI one dose 10 µM; read-out: Cell growth inhibition %
Method: as §1, §2

SK-MEL-2 = assay type: cell-based; settings: Homo sapiens; SK-MEL-2 (Melanoma), NCI one dose 10 µM; read-out: Cell growth inhibition %
Method: as §1, §2

SK-OV-3 = assay type: cell-based; settings: Homo sapiens; SK-OV-3 (Ovarian Cancer), NCI one dose 10 µM; read-out: Cell growth inhibition %
Method: as §1, §2

BT-549 = assay type: cell-based; settings: Homo sapiens; BT-549 (Breast Cancer), NCI one dose 10 µM; read-out: Cell growth inhibition %
Method: as §1, §2

EKVX = assay type: cell-based; settings: Homo sapiens; EKVX (Non-Small Cell Lung Cancer), NCI one dose 10 µM; read-out: Cell growth inhibition %
Method: as §1, §2

A549/ATCC = assay type: cell-based; settings: Homo sapiens; A549/ATCC (Non-Small Cell Lung Cancer), NCI one dose 10 µM; read-out: Cell growth inhibition %
Method: as §1, §2

NCI-H522 = assay type: cell-based; settings: Homo sapiens; NCI-H522 (Non-Small Cell Lung Cancer), NCI one dose 10 µM; read-out: Cell growth inhibition %
Method: as §1, §2

M14 = assay type: cell-based; settings: Homo sapiens; M14 (Melanoma), NCI one dose 10 µM; read-out: Cell growth inhibition %
Method: as §1, §2

SNB-75 = assay type: cell-based; settings: Homo sapiens; SNB-75 (CNS Cancer), NCI one dose 10 µM; read-out: Cell growth inhibition %
Method: as §1, §2

SK-MEL-28 = assay type: cell-based; settings: Homo sapiens; SK-MEL-28 (Melanoma), NCI one dose 10 µM; read-out: Cell growth inhibition %
Method: as §1, §2

PC-3 = assay type: cell-based; settings: Homo sapiens; PC-3 (Prostate Cancer), NCI one dose 10 µM; read-out: Cell growth inhibition %
Method: as §1, §2

MALME-3M = assay type: cell-based; settings: Homo sapiens; MALME-3M (Melanoma), NCI one dose 10 µM; read-out: Cell growth inhibition %
Method: as §1, §2

HOP-62 = assay type: cell-based; settings: Homo sapiens; HOP-62 (Non-Small Cell Lung Cancer), NCI one dose 10 µM; read-out: Cell growth inhibition %
Method: as §1, §2

UACC-257 = assay type: cell-based; settings: Homo sapiens; UACC-257 (Melanoma), NCI one dose 10 µM; read-out: Cell growth inhibition %
Method: as §1, §2

SN12C = assay type: cell-based; settings: Homo sapiens, SN 12C (Renal Cancer), NCI one dose 10 µM, read-out: Cell growth inhibition %
Method: as §1, §2

`COc1ccc(-c2nc3cc(-c4nnc(SCC(=O)Nc5ccc(C(=O)/C=C/c6ccc(Cl)cc6)cc5)o4)ccc3[nH]2)cc1OC` [Compound 7q, 2-{5-[2-(3,4-Dimethoxyphenyl)-1 H-benzo[d]imidazol-5-yl]-1,3,4-oxadiazol-2-ylthio}-N-{4-[(E)-3-(4-chlorophenyl)acryloyl]phenyl}acetamide] gave an inhibition at 10 µM (RXF 393) of 0%, an inhibition at 10 µM (K-562) of 7.27% and an inhibition at 10 µM (HCT-116) of 0%. For the same compound, the inhibition at 10 µM (MOLT-4) was 24.2%, the inhibition at 10 µM (T-47D) was 10.6% and the inhibition at 10 µM (OVCAR-5) was 4.8%. It also gave an inhibition at 10 µM (CCRF-CEM) of 0%, an inhibition at 10 µM (IGROV1) of 8.1% and an inhibition at 10 µM (MCF7) of 24.1%. For the same compound, the inhibition at 10 µM (OVCAR-8) was 0%, the inhibition at 10 µM (UO-31) was 13% and the inhibition at 10 µM (RPMI-8226) was 24.5%. For the same compound, the inhibition at 10 µM (COLO 205) was 0%, the inhibition at 10 µM (HS 578T) was 3.98% and the inhibition at 10 µM (UACC-62) was 1.95%. For the same compound, the inhibition at 10 µM (HCT-15) was 2.92%, the inhibition at 10 µM (MDA-MB-435) was 0% and the inhibition at 10 µM (SK-MEL-2) was 0%. It also gave an inhibition at 10 µM (SK-OV-3) of 0%, an inhibition at 10 µM (BT-549) of 0% and an inhibition at 10 µM (EKVX) of 8.14%. For the same compound, the inhibition at 10 µM (A549/ATCC) was 0%, the inhibition at 10 µM (NCI-H522) was 1.57% and the inhibition at 10 µM (M14) was 0%. The inhibition at 10 µM (SNB-75) was 0%, the inhibition at 10 µM (SK-MEL-28) was 0% and the inhibition at 10 µM (PC-3) was 2.29%. The inhibition at 10 µM (MALME-3M) was 4.86%, the inhibition at 10 µM (HOP-62) was 0% and the inhibition at 10 µM (UACC-257) was 0%. For the same compound, the inhibition at 10 µM (SN12C) was 5.1%.
